Results reported in PMC8286840, “Identifying SARS-CoV-2 antiviral compounds by screening for small molecule inhibitors of Nsp3 papain-like protease” (Biochemical Journal, 2021).
Where a name gives a salt, the structure may show the parent alone. Read-outs that look alike come from different tables or passages of the source. Where a SMILES comes first, the peptide text is derived from it.

Assays:
[1] = target: T1, SARS-CoV-2 PLpro (nsp3 1564–1878) (Severe acute respiratory syndrome coronavirus 2, UniProt P0DTD1); test: biochemical; set-up: FRET-quenched peptide (Pro3) cleavage by PLpro, 10 min pre-incubation, slope over 20 min, normalised to no-compound control; conditions: read-out: % of control remaining
[2] = target: T1, SARS-CoV-2 PLpro (nsp3 1564–1878); test: biochemical; set-up: FRET-quenched peptide (Pro3) cleavage by PLpro, 10 min pre-incubation, slope over 20 min, normalised to no-compound control; conditions: read-out: % of control remaining; remark: listed apart in the source

COc1cc2c(cc1OC)CC(=O)N(CCCN(C)C[C@H]1Cc3cc(OC)c(OC)cc31)CC2 [Ivabradine (hydrochloride)]
remaining activity at 3.75 µM ([1]; Well no.=7625, high concentration screen): 94.7%
remaining activity at 1.25 µM ([2]; Well no.=7625, low concentration screen): 99.3%

NC(=O)c1ccc[n+]([C@@H]2O[C@H](COP(=O)([O-])O)[C@@H](O)[C@H]2O)c1 [_-Nicotinamide mononucleotide]
remaining activity at 3.75 µM ([1]; Well no.=7735, high concentration screen): 105%
remaining activity at 1.25 µM ([2]; Well no.=7735, low concentration screen): 102%

COc1cc(=O)n(C)c2c(OCC(O)C(C)(C)O)cccc12 (stereo not drawn) [Foliosidine]
remaining activity at 3.75 µM ([1]; Well no.=565, high concentration screen): 97.8%
remaining activity at 1.25 µM ([2]; Well no.=565, low concentration screen): 104%

CC1=C(CC(=O)O)c2cc(F)ccc2/C1=C\c1ccc([S+](C)[O-])cc1 (stereo not drawn) [Sulindac]
remaining activity at 3.75 µM ([1]; Well no.=1270, high concentration screen): 105%
remaining activity at 3.75 µM ([1]; Well no.=1756, high concentration screen): 96.7%
remaining activity at 1.25 µM ([2]; Well no.=1270, low concentration screen): 102%
remaining activity at 1.25 µM ([2]; Well no.=1756, low concentration screen): 98.1%

COc1ccc(NS(=O)(=O)c2sc3ccc(Cl)cc3c2C)cc1N1CCNCC1 [SB 271046]
remaining activity at 3.75 µM ([1]; Well no.=4934, high concentration screen): 92.4%
remaining activity at 1.25 µM ([2]; Well no.=4934, low concentration screen): 94.2%

Nc1nc(NCCNc2ncc(-n3ccnc3)c(-c3ccc(Cl)cc3Cl)n2)ccc1[N+](=O)[O-] [CHIR-98014]
remaining activity at 3.75 µM ([1]; Well no.=5035, high concentration screen): 96.8%
remaining activity at 1.25 µM ([2]; Well no.=5035, low concentration screen): 101%

O=Cc1cn(Cc2ccc(Cl)cc2)c2ccccc12 [Oncrasin-1]
remaining activity at 3.75 µM [1]: 101%
remaining activity at 1.25 µM [2]: 95.2%

CCCCCCCCCCCCCCCCCCOP(=O)([O-])OC1CC[N+](C)(C)CC1 [1,1-dimethylpiperidinium-4-yl octadecyl phosphate]
remaining activity at 3.75 µM ([1]; Well no.=5460, high concentration screen): 107%
remaining activity at 1.25 µM ([2]; Well no.=5460, low concentration screen): 102%

CC12CC3CC(C)(C1)CC(N)(C3)C2 [Memantine hydrochloride]
remaining activity at 3.75 µM ([1]; Well no.=1083, high concentration screen): 99.3%
remaining activity at 1.25 µM ([2]; Well no.=1083, low concentration screen): 97.8%

CCOP(=O)(OCC)C(=Cc1cc(C(C)(C)C)c(O)c(C(C)(C)C)c1)P(=O)(OCC)OCC [SR 12813]
remaining activity at 3.75 µM [1]: 103%
remaining activity at 1.25 µM [2]: 96.5%

CN(C)CCCn1cc(C2=C(c3c[nH]c4ccccc34)C(=O)NC2=O)c2ccccc21 [GF 109203X - 2-[1-(3-Dimethylaminopropyl)indol-3-yl]-3-(indol-3-yl) maleimide]
remaining activity at 3.75 µM ([1]; Well no.=2340, high concentration screen): 106%
remaining activity at 1.25 µM ([2]; Well no.=2340, low concentration screen): 103%

Nc1ncnc2n[nH]c(Nc3ccc(F)cc3)c12 [CGP 57380 - N3-(4-Fluorophenyl)-1H-pyrazolo-[3,4-d]pyrimidine-3,4-diamine]
remaining activity at 3.75 µM ([1]; Well no.=2624, high concentration screen): 92.7%
remaining activity at 1.25 µM ([2]; Well no.=2624, low concentration screen): 92.8%

N#CC1(c2ccc(NC(=O)c3cccnc3NCc3ccncc3)cc2)CCCC1 [Apatinib (YN968D1)]
remaining activity at 3.75 µM ([1]; Well no.=5156, high concentration screen): 102%
remaining activity at 1.25 µM ([2]; Well no.=5156, low concentration screen): 101%

CCN1C[C@]2(OC(=O)c3ccccc3NC(C)=O)CC[C@H](OC)[C@@]34[C@@H]2C[C@@H]([C@@H]13)[C@@]1(O)C[C@H](OC)[C@H]2C[C@@H]4[C@]1(O)[C@H]2OC [Lappaconitine]
remaining activity at 3.75 µM ([1]; Well no.=3653, high concentration screen): 105%
remaining activity at 1.25 µM ([2]; Well no.=3653, low concentration screen): 103%

CN(C)c1nc2c(ncn2[C@@H]2O[C@H](CO)[C@@H](O)[C@H]2O)c(=O)[nH]1 [N2,N2-Dimethylguanosine]
remaining activity at 3.75 µM ([1]; Well no.=6969, high concentration screen): 106%
remaining activity at 3.75 µM ([1]; Well no.=7820, high concentration screen): 104%
remaining activity at 1.25 µM ([2]; Well no.=6969, low concentration screen): 105%
remaining activity at 1.25 µM ([2]; Well no.=7820, low concentration screen): 104%

C[C@@H]1C[C@H]2[C@@H]3CCC4=CC(=O)C=C[C@]4(C)[C@@]3(Cl)[C@@H](O)C[C@]2(C)[C@@]1(OC(=O)c1ccco1)C(=O)CCl [Mometasone furoate]
remaining activity at 3.75 µM ([1]; Well no.=4668, high concentration screen): 103%
remaining activity at 3.75 µM ([1]; Well no.=6700, high concentration screen): 89.6%
remaining activity at 1.25 µM ([2]; Well no.=4668, low concentration screen): 103%
remaining activity at 1.25 µM ([2]; Well no.=6700, low concentration screen): 92.3%

N#CCNC(=O)c1ccc(-c2ccnc(Nc3ccc(N4CCOCC4)cc3)n2)cc1 [CYT11387]
remaining activity at 3.75 µM ([1]; Well no.=2753, high concentration screen): 99.6%
remaining activity at 1.25 µM ([2]; Well no.=2753, low concentration screen): 98.6%

CCCCN1CCC(CNC(=O)c2c3n(c4ccccc24)CCCO3)CC1 [Piboserod]
remaining activity at 3.75 µM ([1]; Well no.=7965, high concentration screen): 93.6%
remaining activity at 1.25 µM ([2]; Well no.=7965, low concentration screen): 93.1%

NC(N)=NCCC[C@H](N)C(=O)NCC(=O)N[C@@H](CCC(=O)O)C(=O)N[C@@H](CO)C(=O)O [Arg-Gly-Glu-Ser(TFA)] (H-RGES-OH)
remaining activity at 3.75 µM ([1]; Well no.=7924, high concentration screen): 97.3%
remaining activity at 1.25 µM ([2]; Well no.=7924, low concentration screen): 96.4%

O=C(O)C1CCCNC1 (racemic)
remaining activity at 3.75 µM ([1]; Well no.=195, high concentration screen): 97.6%
remaining activity at 1.25 µM ([2]; Well no.=195, low concentration screen): 102%

CC(C)S(=O)(=O)N[C@H]1CCOC[C@@H]1c1ccc(-c2ccc(C#N)s2)cc1 [N-{(3R,4S)-3-[4-(5-cyano-2-thienyl)phenyl]tetrahydro-2H-pyran-4-yl}-2-propanesulfonamide]
remaining activity at 3.75 µM ([1]; Well no.=6010, high concentration screen): 92.7%
remaining activity at 1.25 µM ([2]; Well no.=6010, low concentration screen): 100%

CCC(=O)O[C@]1(C(=O)CCl)[C@@H](C)C[C@H]2[C@@H]3CCC4=CC(=O)C=C[C@]4(C)[C@@]3(F)[C@@H](O)C[C@@]21C [Clobetasol propionate]
remaining activity at 3.75 µM ([1]; Well no.=1924, high concentration screen): 99.3%
remaining activity at 3.75 µM ([1]; Well no.=8301, high concentration screen): 89.7%
remaining activity at 1.25 µM ([2]; Well no.=1924, low concentration screen): 98.4%
remaining activity at 1.25 µM ([2]; Well no.=8301, low concentration screen): 95.3%

COc1ccc(CC2NCCc3cc(OC)c(OC)cc32)cc1OC (stereo not drawn) [Tetrahydropapaverine HCl]
remaining activity at 3.75 µM ([1]; Well no.=8290, high concentration screen): 98%
remaining activity at 1.25 µM ([2]; Well no.=8290, low concentration screen): 99.5%

COc1ccc(-c2cc(=O)c3c(O)cc(O)cc3o2)cc1 [Acacetine]
remaining activity at 3.75 µM ([1]; Well no.=3398, high concentration screen): 92.9%
remaining activity at 1.25 µM ([2]; Well no.=3398, low concentration screen): 94.2%

COc1cc(OC2CCN(C)CC2)ccc1Nc1ncc2c(n1)n(C1CCCC1)c(=O)n2C [AZ 3146]
remaining activity at 3.75 µM ([1]; Well no.=5029, high concentration screen): 101%
remaining activity at 1.25 µM ([2]; Well no.=5029, low concentration screen): 102%

CC(=O)N[C@H]1[C@H]([C@H](O)[C@H](O)CO)OC(O)(C(=O)O)C[C@@H]1O (stereo partly drawn) [N-Acetylneuraminic acid]
remaining activity at 3.75 µM ([1]; Well no.=6491, high concentration screen): 94.5%
remaining activity at 1.25 µM ([2]; Well no.=6491, low concentration screen): 92.4%

Cc1ccc(NC(=S)NNc2c([N+](=O)[O-])cc(C(F)(F)F)cc2[N+](=O)[O-])cc1Cl [Kobe0065]
remaining activity at 3.75 µM ([1]; Well no.=7436, high concentration screen): 106%
remaining activity at 1.25 µM ([2]; Well no.=7436, low concentration screen): 103%

CC(C)(F)C[C@H](N[C@@H](c1ccc(-c2ccc(S(C)(=O)=O)cc2)cc1)C(F)(F)F)C(=O)NC1(C#N)CC1 [Odanacatib (MK-0822)]
remaining activity at 3.75 µM ([1]; Well no.=8836, high concentration screen): 92.8%
remaining activity at 1.25 µM ([2]; Well no.=8836, low concentration screen): 88.7%

O=c1ccc2ccc(OCCCCN3CCN(c4cccc5sccc45)CC3)cc2[nH]1 [Brexpiprazole]
remaining activity at 3.75 µM ([1]; Well no.=6473, high concentration screen): 98.1%
remaining activity at 1.25 µM ([2]; Well no.=6473, low concentration screen): 99.5%

CCNC(=O)Nc1ccc(-c2nc3c(c(N4CCOC[C@@H]4C)n2)CCN(C2COC2)C3)cc1 [GDC-0349]
remaining activity at 3.75 µM ([1]; Well no.=5220, high concentration screen): 95.1%
remaining activity at 1.25 µM ([2]; Well no.=5220, low concentration screen): 97.8%

C[C@H]1[C@H]2CC[C@H]3[C@@H]4CC=C5C[C@@H](N(C)C)CC[C@]5(C)[C@H]4CC[C@]23CN1C [Conessine]
remaining activity at 3.75 µM ([1]; Well no.=3100, high concentration screen): 93.7%
remaining activity at 1.25 µM ([2]; Well no.=3100, low concentration screen): 94%

CSc1ccc2c(c1)N(CCC1CCCCN1C)c1ccccc1S2 (stereo not drawn) [Thioridazine]
remaining activity at 3.75 µM ([1]; Well no.=2140, high concentration screen): 96.6%
remaining activity at 1.25 µM ([2]; Well no.=2140, low concentration screen): 97.3%
